For test [1], the target named is T1, hSGLT5 Arg401His (Homo sapiens, UniProt A0PJK1, R401H).
T1 construct: pUB83-hSGLT5-iso2 as well as the various SGLT5 mutants obtained were used to transduce HEK293T cells; expressed in transfected cells; host or cells: HEK293T, lentiviral transduction (pUB83)
T1 sequence (A0PJK1 1-596 R401H): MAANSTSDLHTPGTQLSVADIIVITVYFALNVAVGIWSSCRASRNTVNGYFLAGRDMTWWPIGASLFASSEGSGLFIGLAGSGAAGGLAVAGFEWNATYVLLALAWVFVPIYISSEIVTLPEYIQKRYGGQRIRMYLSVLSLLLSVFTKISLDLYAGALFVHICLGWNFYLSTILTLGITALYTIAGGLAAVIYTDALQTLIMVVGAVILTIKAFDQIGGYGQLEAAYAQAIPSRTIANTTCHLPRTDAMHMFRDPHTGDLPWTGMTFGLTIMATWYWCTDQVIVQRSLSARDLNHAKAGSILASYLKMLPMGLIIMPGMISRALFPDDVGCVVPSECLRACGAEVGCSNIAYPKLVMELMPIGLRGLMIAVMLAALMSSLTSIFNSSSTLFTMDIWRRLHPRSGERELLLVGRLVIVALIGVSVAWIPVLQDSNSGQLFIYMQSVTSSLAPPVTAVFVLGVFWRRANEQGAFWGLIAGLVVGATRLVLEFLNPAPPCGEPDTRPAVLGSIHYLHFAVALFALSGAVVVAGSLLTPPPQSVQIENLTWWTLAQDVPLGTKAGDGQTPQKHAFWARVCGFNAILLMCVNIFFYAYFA
Briefly: Inhibition of 10 µM 1,5-AG transport by SGLT5 variant Arg401His. It is filed as cell-based. The conditions noted are these: Fig. 5D. The procedure: The transport experiments to study the specificity of SGLT4 or SGLT5, were performed in the presence of 10 µM U-[^14C + ^12C]-mannose (for SGLT4) or 2-[^3H + ^1H]-1,5-AG (for SGLT5) and increasing concentrations of various sugars tested. The transport experiments to study the inhibition of empagliflozin, dapagliflozin or remogliflozin, on the transport of 1,5-AG by SGLT5 or its variants were performed in the presence of 10 µM 2-[^3H + ^1H]-1,5-AG and increasing concentrations of the various gliflozins tested.
SGLT5 mutants were created using the quick-change site directed mutagenesis method that enables effective mutagenesis without subcloning of the amplified PCR products. Complementary primer pairs carrying the desired replacements (Supplementary Table 3) were designed using an online tool (https://www.agilent.com/store/primerDesignProgram.jsp). The PCR protocol was carried out following the manufacturer instructions regarding the KOD HOT Start polymerase kit (TOYOBO™, Novagen). The amplified DNA was cleaned-up from the reactions constituents using the GeneJET PCR purification Kit (Thermo Scientific™) and the size of the DNA fragment were verified by DNA agarose-gel electrophoresis. […]

Test [2] has as its target T2, mouse SGLT4 (Mus musculus, UniProt Q8VDT1).
T2 construct: expressed in transfected cells; host or cells: HEK293T
T2 sequence (Q8VDT1 1-685): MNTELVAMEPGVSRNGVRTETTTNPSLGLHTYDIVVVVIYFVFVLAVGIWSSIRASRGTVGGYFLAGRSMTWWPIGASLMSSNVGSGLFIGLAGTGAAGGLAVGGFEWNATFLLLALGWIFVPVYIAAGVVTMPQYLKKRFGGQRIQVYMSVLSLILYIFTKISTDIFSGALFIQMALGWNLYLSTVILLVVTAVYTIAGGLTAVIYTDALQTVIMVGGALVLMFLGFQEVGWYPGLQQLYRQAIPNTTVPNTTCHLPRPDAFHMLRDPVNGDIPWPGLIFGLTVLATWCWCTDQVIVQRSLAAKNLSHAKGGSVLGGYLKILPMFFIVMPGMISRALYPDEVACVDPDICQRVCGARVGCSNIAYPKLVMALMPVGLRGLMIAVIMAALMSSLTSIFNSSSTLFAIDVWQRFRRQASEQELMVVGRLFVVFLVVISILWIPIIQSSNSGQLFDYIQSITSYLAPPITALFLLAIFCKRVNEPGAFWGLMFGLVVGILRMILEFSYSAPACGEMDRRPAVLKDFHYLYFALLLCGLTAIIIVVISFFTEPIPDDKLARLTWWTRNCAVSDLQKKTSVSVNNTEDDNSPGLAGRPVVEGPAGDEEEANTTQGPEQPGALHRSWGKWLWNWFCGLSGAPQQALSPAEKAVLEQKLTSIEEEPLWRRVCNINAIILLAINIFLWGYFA
In words: Inhibition of 50 µM mannose transport in HEK293T cells expressing mouse SGLT4. The test is classed as cell-based. Particulars: 10 mM 1,5-AG. How it is done:
Supplementary Fig. 4: Transport activities for 1,5-anhydroglucitol and mannose of recombinant mouse SGLT4 and SGLT5 isoforms measured in HEK293T cells.
Transport was measured in 24 well plates with 0.6x10^6 cells during 30 mins at 37°C in 5% CO2 in the presence of the indicated concentrations of 2-[1H+3H]-1,5-AG for both mSGLT4 (A) and mSGLT5 (B) and U-[12C+14C]-mannose (C) for mSGLT4. The saturation curves for the transport activities and the derived kinetic constants (Km and Vmax) are shown and indicate that mSGLT4 appears to be able to transport 1,5-anhydroglucitol but with a very low affinity (Km > 5 mM – panel A) compared to mannose (Km = 0.2 mM – panel C), while mSGLT5 transports efficiently 1,5-anhydroglucitol (Km = 0.5 mM – panel B). (D) 10 mM 1,5- […]
U-[12C+14C]-mannose) for both the human (hSGLT4) and the mouse (mSGLT4) isoforms of […]
(also on this page, place not known: Transport of (pmol/min/100 cells) Transport of (pmol/min/100 cells) 000 Transport of 1,5-AG (pmol/min/100 000 cells) 000 hSGLT4 mSGLT4 Mannose transport activity (% of the value at [12C+14C]-mannose) 50 µM mannose 1,5-AG)

As to `OC[C@H]1O[C@@H](c2ccc(Cl)c(Cc3ccc(O[C@H]4CCOC4)cc3)c2)[C@H](O)[C@@H](O)[C@@H]1O` [empagliflozin], the “effect of mutation on concentration of empagliflozin needed to inhibit SGLT5” value in test [1] is given as “did not affect significantly”.
In the case of `OC[C@H]1OC[C@H](O)[C@@H](O)[C@@H]1O` [1,5-AG, 1,5-anhydroglucitol], the “inhibition of mouse SGLT4 transport activity” value in test [2] was “barely inhibited”.
